From PubChem BioAssay (NCI)
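Assay format: 96-well plates, 48-hour exposure. Definition used: TGI = concentration required for complete inhibition of growth.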

Columns and labels:
Experiment in all cases: NCI tumour cell line growth inhibition, 48 h
T-47D breast = test system: T-47D breast
CCRF-CEM leukemia = test system: CCRF-CEM leukemia
PC-3 prostate = test system: PC-3 prostate
K-562 leukemia = test system: K-562 leukemia
RXF 393 renal = test system: RXF 393 renal
SK-MEL-2 melanoma = test system: SK-MEL-2 melanoma
786-0 renal = test system: 786-0 renal
MDA-MB-435 = test system: MDA-MB-435
HT29 colon = test system: HT29 colon
HCT-116 colon = test system: HCT-116 colon
UACC-62 melanoma = test system: UACC-62 melanoma
ACHN renal = test system: ACHN renal
MOLT-4 leukemia = test system: MOLT-4 leukemia
SK-OV-3 ovarian = test system: SK-OV-3 ovarian
LOX IMVI melanoma = test system: LOX IMVI melanoma
SK-MEL-28 melanoma = test system: SK-MEL-28 melanoma
NCI-H522 lung = test system: NCI-H522 lung
MDA-N = test system: MDA-N
UACC-257 melanoma = test system: UACC-257 melanoma
NCI-H23 lung = test system: NCI-H23 lung
SNB-75 CNS = test system: SNB-75 CNS
OVCAR-3 ovarian = test system: OVCAR-3 ovarian
HL-60(TB) leukemia = test system: HL-60(TB) leukemia
NCI/ADR-RES ovarian = test system: NCI/ADR-RES ovarian
SW-620 colon = test system: SW-620 colon
KM12 colon = test system: KM12 colon
A549 NSCLC = test system: A549 NSCLC
OVCAR-8 ovarian = test system: OVCAR-8 ovarian
COLO 205 colon = test system: COLO 205 colon
HOP-62 NSCLC = test system: HOP-62 NSCLC
SK-MEL-5 melanoma = test system: SK-MEL-5 melanoma
TK-10 renal = test system: TK-10 renal
U251 CNS = test system: U251 CNS
HOP-92 NSCLC = test system: HOP-92 NSCLC
A498 renal = test system: A498 renal
EKVX NSCLC = test system: EKVX NSCLC
MCF7 breast = test system: MCF7 breast
CAKI-1 renal = test system: CAKI-1 renal
MALME-3M melanoma = test system: MALME-3M melanoma
HCT-15 colon = test system: HCT-15 colon
SF-295 CNS = test system: SF-295 CNS
M14 melanoma = test system: M14 melanoma
NCI-H226 lung = test system: NCI-H226 lung
SF-539 CNS = test system: SF-539 CNS
DU-145 prostate = test system: DU-145 prostate
SN12C renal = test system: SN12C renal
RPMI-8226 leukemia = test system: RPMI-8226 leukemia
UO-31 renal = test system: UO-31 renal
MDA-MB-231 breast = test system: MDA-MB-231 breast
IGROV1 ovarian = test system: IGROV1 ovarian
HCC-2998 colon = test system: HCC-2998 colon
OVCAR-4 ovarian = test system: OVCAR-4 ovarian
SNB-19 CNS = test system: SNB-19 CNS
BT-549 breast = test system: BT-549 breast
OVCAR-5 ovarian = test system: OVCAR-5 ovarian
NCI-H460 lung = test system: NCI-H460 lung

Measured: TGI

Cc1cccc(Nc2cnc(N)nc2N)c1
not listed: BT-549 breast | OVCAR-5 ovarian | NCI-H460 lung
> 100 µM: all other assays above

CCc1n[nH]c(=O)n1CCO
not listed: CCRF-CEM leukemia | RXF 393 renal | NCI-H522 lung | SNB-75 CNS | HOP-62 NSCLC | MALME-3M melanoma
> 100 µM: all other assays above
